Experimental data taken from US9957261B2 (Hoffmann-La Roche Inc., priority 2014, dated 2018).

Experiments:
rat TAAR1 = rat TAAR1 (Rattus norvegicus (Rat), UniProt Q923Y9); test: Radioligand binding assay on rat TAAR1; conditions: for Ki: rat TAAR1, membranes of stably transfected HEK-293 cells, second value of mouse/rat pair
Description: (§1) Construction of TAAR Expression Plasmids and Stably Transfected Cell Lines
(§2) For the construction of expression plasmids the coding sequences of human, rat and mouse TAAR 1 were amplified from genomic DNA essentially as described by Lindemann et al.. The Expand High Fidelity PCR System (Roche Diagnostics) was used with 1.5 mM Mg^2+ and purified PCR products were cloned into pCR2.1-TOPO cloning vector (Invitrogen) following the instructions of the manufacturer. PCR products were subcloned into the pIRESneo2 vector (BD Clontech, Palo Alto, Calif.), and expression vectors were sequence verified before introduction in cell lines.
(§3) HEK293 cells (ATCC # CRL-1573) were cultured essentially as described by Lindemann et al. (2005). For the generation of stably transfected cell lines HEK293 cells were transfected with the pIRESneo2 expression plasmids containing the TAAR coding sequences (described above) with Lipofectamine 2000 (Invitrogen) according to the instructions of the manufacturer, and 24 hrs post transfection the culture medium was supplemented with 1 mg/ml G418 (Sigma, Buchs, Switzerland). After a culture period of about 10 d clones were isolated, expanded and tested for responsiveness to trace amines (all compounds purchased from Sigma) with the cAMP Biotrak Enzyme immunoassay (EIA) System (Amersham) following the non-acetylation EIA procedure provided by the manufacturer.
Radioligand Binding Assay on Rat TAAR1
(§4) Membrane Preparation and Radioligand Binding.
(§5) HEK-293 cells stably expressing rat TAAR1 were maintained at 37° C. and 5% CO2 in DMEM high glucose medium, containing fetal calf serum (10%, heat inactivated for 30 min at 56° C.), penicillin/streptomycin (1%), and 375 μg/ml geneticin (Gibco). Cells were released from culture flasks using trypsin/EDTA, harvested, washed twice with ice-cold PBS (without Ca^2+ and Mg^2+), pelleted at 1′000 rpm for 5 min at 4° C., frozen and stored at −80° C. Frozen pellets were suspended in 20 ml HEPES-NaOH (20 mM, pH 7.4) containing 10 mM EDTA and homogenized with a Polytron (PT 6000, Kinematica) at 14,000 rpm for 20 s. The homogenate was centrifuged at 48,000×g for 30 min at 4° C. Subsequently, the supernatant was removed and discarded, and the pellet resuspended in 20 ml HEPES-NaOH (20 mM, pH 7.4) containing 0.1 mM EDTA using the Polytron (20 s at 14,000 rpm). This procedure was repeated and the final pellet resuspended in HEPES-NaOH containing 0.1 mM EDTA and homogenized using the Polytron. Typically, aliquots of 2 ml membrane portions were stored at −80° C. With each new membrane batch the dissociation constant (Kd) was determined via a saturation curve. […] Nonspecific binding was defined as the amount of [H]—(S)-4-[(ethyl-phenyl-amino)-methyl]-4,5-dihydro-oxazol-2-ylamine bound in the presence of 10 μM unlabeled ligand. All compounds were tested at a broad range of concentrations (10 pM to 10 μM) in duplicates. […] The 96 deep well plates were incubated for 1 hr at 4° C. Incubations were terminated by rapid filtration through Unifilter-96 plates (Packard Instrument Company) and glass filters GF/C (Perkin Elmer) presoaked for 1 hr in polyethylenimine (0.3%) and washed 3 times with 1 ml of cold binding buffer. After addition of 45 μl of Microscint 40 (PerkinElmer) the Unifilter-96 plate was sealed and after 1 hr the radioactivity counted using a TopCount Microplate Scintillation Counter (Packard Instrument Company).

mouse TAAR1 = mouse TAAR1 (Mus musculus (Mouse), UniProt Q923Y8); test: Radioligand binding assay on mouse TAAR1; conditions: for Ki: mouse TAAR1, membranes of stably transfected HEK-293 cells, first value of mouse/rat pair
Sequence of mouse TAAR1 (Q923Y8 whole entry): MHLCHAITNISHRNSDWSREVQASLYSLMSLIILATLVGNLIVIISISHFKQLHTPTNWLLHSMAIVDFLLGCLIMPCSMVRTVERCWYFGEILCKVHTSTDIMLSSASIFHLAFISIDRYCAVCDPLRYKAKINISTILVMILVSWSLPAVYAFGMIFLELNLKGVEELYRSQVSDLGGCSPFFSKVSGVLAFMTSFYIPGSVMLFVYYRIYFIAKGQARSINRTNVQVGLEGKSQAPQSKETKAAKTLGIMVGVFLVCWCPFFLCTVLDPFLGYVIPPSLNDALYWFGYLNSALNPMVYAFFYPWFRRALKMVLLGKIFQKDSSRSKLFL
Description: as §1, §2, §3
Radioligand Binding Assay on Mouse TAAR1
as §4
as §5, with “expressing mouse” for “expressing rat”, “of ^3[H]—(S)-4-[(ethyl-phenyl-amino)-methyl]-4,5-dihydro-oxazol-2-ylamine” for “of [H]—(S)-4-[(ethyl-phenyl-amino)-methyl]-4,5-dihydro-oxazol-2-ylamine”

Sequence of rat TAAR1 (Q923Y9 whole entry): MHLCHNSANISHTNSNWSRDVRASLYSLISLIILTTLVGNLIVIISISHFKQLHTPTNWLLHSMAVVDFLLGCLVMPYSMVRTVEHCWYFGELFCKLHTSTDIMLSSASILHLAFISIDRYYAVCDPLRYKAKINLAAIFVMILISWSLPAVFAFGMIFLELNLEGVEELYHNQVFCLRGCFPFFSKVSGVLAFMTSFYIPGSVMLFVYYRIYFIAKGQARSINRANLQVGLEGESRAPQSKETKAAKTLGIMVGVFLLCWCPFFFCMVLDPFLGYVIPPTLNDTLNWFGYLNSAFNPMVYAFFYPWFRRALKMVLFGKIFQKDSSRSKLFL

Row | Ki (rat TAAR1) [µM] | Ki (mouse TAAR1) [µM] | Kd (rat TAAR1; rat TAAR1 membranes, saturation curve, read-out: dissociation constant (Kd) of the radioligand) [nM] | Kd (mouse TAAR1; mouse TAAR1 membranes, saturation curve, read-out: dissociation constant (Kd) of the radioligand) [nM] | Structure (SMILES)
1 | 0.0096 | 0.187 |  |  | CCCc1cc(C(=O)Nc2ccc3c(c2)OC[C@@H](N)C3)nn1CC(F)F [Example 11, (S)—N-(3-Aminochroman-7-yl)-1-(2,2-difluoroethyl)-5-propyl-1H-pyrazole-3-carboxamide]
2 | 0.0035 | 0.0132 |  |  | CCCc1cc(C(=O)Nc2ccc3c(c2)CCC(N)C3)nn1CC(F)F (stereo not shown) [Example 3, N-(6-Amino-5,6,7,8-tetrahydronaphthalen-2-yl)-1-(2,2-difluoroethyl)-5-propyl-1H-pyrazole-3-carboxamide]
3 | 0.0042 | 0.0077 |  |  | NC1CCc2cc(NC(=O)c3n[nH]c(C4CC4)c3Br)ccc2C1 (stereo not shown) [Example 2, N-(6-Amino-5,6,7,8-tetrahydronaphthalen-2-yl)-4-bromo-5-cyclopropyl-1H-pyrazole-3-carboxamide]
4 |  |  | ~2.3 | ~0.7 | CCN(C[C@H]1COC(N)=N1)c1ccccc1 [(S)-4-[(ethyl-phenyl-amino)-methyl]-4,5-dihydro-oxazol-2-ylamine, reference compound]
5 | 0.0865 | 0.021 |  |  | NC1CCc2cc(C(=O)Nc3cnc(C(F)(F)F)cn3)ccc2C1 (stereo not shown) [Example 33, 6-Amino-N-(5-(trifluoromethyl)pyrazin-2-yl)-5,6,7,8-tetrahydronaphthalene-2-carboxamide]
6 | 0.0434 | 0.0247 |  |  | CCOc1ccc(NC(=O)c2ccc3c(c2)CCC(N)C3)cn1 (stereo not shown) [Example 31, 6-Amino-N-(6-ethoxypyridin-3-yl)-5,6,7,8-tetrahydronaphthalene-2-carboxamide]
7 | 0.0003 | 0.0007 |  |  | N[C@H]1CCc2cc(NC(=O)c3cnn(-c4ccc(Cl)c(Cl)c4)c3)ccc2C1 [Example 28, (S)—N-(6-Amino-5,6,7,8-tetrahydronaphthalen-2-yl)-1-(3,4-dichlorophenyl)-1H-pyrazole-4-carboxamide]
8 | 0.0044 | 0.0075 |  |  | COc1cccc(NC(=O)Nc2ccc3c(c2)CC[C@H](N)C3)c1 [Example 67, (S)-1-(6-Amino-5,6,7,8-tetrahydronaphthalen-2-yl)-3-(3-methoxyphenyl)urea]
9 | 0.0005 | 0.0012 |  |  | N[C@H]1CCc2cc(NC(=O)c3cnn(-c4ccc(OC(F)(F)F)cc4)c3)ccc2C1 [Example 29, (S)—N-(6-Amino-5,6,7,8-tetrahydronaphthalen-2-yl)-1-(4-(trifluoromethoxy)phenyl)-1H-pyrazole-4-carboxamide]
10 | 0.0003 | 0.0012 |  |  | N[C@H]1CCc2cc(NC(=O)Nc3ccc(OC(F)(F)F)cc3)ccc2C1 [Example 65, (S)-1-(6-Amino-5,6,7,8-tetrahydronaphthalen-2-yl)-3-(4-(trifluoromethoxy)phenyl)urea]
11 | 0.241 | 1.45 |  |  | Cc1cc(C(=O)Nc2ccc3c(c2)OC[C@@H](N)C3)nc(C(F)(F)F)n1 [Example 13, (S)—N-(3-Aminochroman-7-yl)-6-methyl-2-(trifluoromethyl)pyrimidine-4-carboxamide]
12 | 0.0085 | 0.0029 |  |  | N[C@H]1CCc2cc(NC(=O)NCc3ccc(Cl)cc3)ccc2C1 [Example 69, (S)-1-(6-Amino-5,6,7,8-tetrahydronaphthalen-2-yl)-3-(4-chlorobenzyl)urea]
13 | 0.0189 | 0.0009 |  |  | N[C@H]1COc2cc(NC(=O)c3ccc(F)c(F)c3)ccc2C1 [Example 87, (R)—N-(3-Aminochroman-7-yl)-3,4-difluorobenzamide]
14 | 0.0034 | 0.0018 |  |  | Cc1nc(-c2ccc(C(=O)Nc3ccc4c(c3)OC[C@H](N)C4)cc2)cs1 [Example 83, (R)—N-(3-Aminochroman-7-yl)-4-(2-methylthiazol-4-yl)benzamide]
15 | 0.0039 | 0.0054 |  |  | NC1CCc2cc(C(=O)Nc3ccc(C(F)(F)F)cc3)ccc2C1 (stereo not shown) [Example 34, 6-Amino-N-(4-(trifluoromethyl)phenyl)-5,6,7,8-tetrahydronaphthalene-2-carboxamide]
16 | 0.0243 | 0.0088 |  |  | Cc1cc(C(=O)Nc2ccc3c(c2)OC[C@H](N)C3)cc(Cl)n1 [Example 89, (R)—N-(3-Aminochroman-7-yl)-2-chloro-6-methylisonicotinamide]

Row | Structure (SMILES) | Ki (rat TAAR1) [µM] | Ki (mouse TAAR1) [µM] | Kd (rat TAAR1; rat TAAR1 membranes, saturation curve, read-out: dissociation constant (Kd) of the radioligand) [nM] | Kd (mouse TAAR1; mouse TAAR1 membranes, saturation curve, read-out: dissociation constant (Kd) of the radioligand) [nM]
17 | N#Cc1ccc(NC(=O)c2ccc3c(c2)CCC(N)C3)cc1 (stereo not shown) [Example 70] | 0.0032 | 0.0044 |  | 
18 | N[C@H]1CCc2cc(Nc3ncc(C(F)(F)F)cn3)ccc2C1 [Example 23, (S)—N6-(5-(Trifluoromethyl)pyrimidin-2-yl)-1,2,3,4-tetrahydronaphthalene-2,6-diamine] | 0.0068 | 0.0213 |  | 
19 | N[C@H]1CCc2cc(Nc3ccc(F)cc3)ccc2C1 [Example 66, (S)—N6-(4-Fluorophenyl)-1,2,3,4-tetrahydronaphthalene-2,6-diamine] | 0.024 | 0.171 |  | 
20 | NC1CCc2cc(C(=O)Nc3ccc(F)cc3)ccc2C1 (stereo not shown) [Example 58, 6-Amino-N-(4-fluorophenyl)-5,6,7,8-tetrahydronaphthalene-2-carboxamide] | 0.0964 | 0.0569 |  | 
21 | CCc1ccc(Nc2ccc3c(c2)CC[C@H](N)C3)cc1 [Example 53, (S)—N6-(4-Ethylphenyl)-1,2,3,4-tetrahydronaphthalene-2,6-diamine] | 0.0083 | 0.006 |  | 
22 | COc1ccc(C(=O)Nc2ccc3c(c2)CC[C@H](N)C3)cn1 [Example 21, (S)—N-(6-Amino-5,6,7,8-tetrahydronaphthalen-2-yl)-6-methoxynicotinamide] | 0.0513 | 0.0344 |  | 
23 | Cc1onc(C(=O)Nc2ccc3c(c2)CC[C@H](N)C3)c1Cl [Example 26, (S)—N-(6-Amino-5,6,7,8-tetrahydronaphthalen-2-yl)-4-chloro-5-methylisoxazole-3-carboxamide] | 0.0199 | 0.0049 |  | 
24 | N[C@H]1CCc2cc(Nc3cccc(Cl)c3)ccc2C1 [Example 68, (S)—N6-(3-Chlorophenyl)-1,2,3,4-tetrahydronaphthalene-2,6-diamine] | 0.0099 | 0.019 |  | 
25 | N[C@H]1CCc2cc(NCc3ccc(Cl)cc3)ccc2C1 [Example 75, (S)—N6-(4-Chlorobenzyl)-1,2,3,4-tetrahydronaphthalene-2,6-diamine] |  | 0.0048 |  | 
